Test results reported in paper PMC11831592, “Repurposing Linezolid in Conjunction with Histone Deacetylase Inhibitor Access in the Realm of Glioblastoma Therapies” (Journal of Medicinal Chemistry, 2025).
Read-outs that look alike come from different tables or passages of the source.

What was measured:
[1] = test system: PT#3-R; experiment: CCK8 cell proliferation assay, PT#3-R; assay type: cell-based; conditions: Homo sapiens, CCK8, 72 h
Procedure: (§1) Cell viability and drug cytotoxicity were determined by a CCK-8 kit (Cell Counting Kit-8, CK04-13, MD, USA) (CCK8, C0005, Target Molecule Corp., MA, USA) reagent. Cells were seeded 2 × 10^3 per well in the 96-well plate for 24 h, followed by treating at different concentrations of compounds for 72 h. Before the experiment, CCK8 was 10-fold diluted with the culture medium and then incubated with cells for 30 min. Finally, the OD was 450 nm absorbance and calculated for cell viability.

[2] = test system: CT-2A-R astrocytoma cells; experiment: Orthotopic CT-2A-R tumor model, IVIS; assay type: in vivo, mouse; conditions: 50 mg/kg orally
Procedure: Animals were imaged using an IVIS to monitor tumor growth and target expression changes. Initially, animals were anesthetized with isoflurane prior to imaging to minimize movement artifacts. D-luciferin (150 mg/kg) was then administered via an intraperitoneal injection. After 60 s, animals were positioned on the imaging platform, and images were acquired with a 10-s exposure. Experimental data were collected and quantified for fluorescence or bioluminescence signals by using Living Image software in the IVIS system. After each imaging session, animal ID, imaging parameters, and imaging time were recorded for subsequent analysis.
For orthotopic inoculation, CT-2A cells (1 × 10^5) or CT-2A-R (2 × 10^5) were suspended in 4 μL of DMEM and implanted into the brain of B6 mice. PT#3-R cells (5 × 10^5) were suspended in 4 μL of DMEM and implanted into the brain of SCID mice. After cell implantation, mice were monitored daily for survival, and their body weight was measured every 3 days starting from the seventh day. The oral vehicle consisted of 40% ethyl oleate, 12% lecithin, 20% propylene glycol, and 28% Triton X-100. Mice were administered 5 μL of vehicle per gram of body weight along with 50 mg/kg TMZ or a combination of TMZ and compound 1. Intraperitoneal injections were administered with DMSO (solvent control), TMZ (10 μg/kg), TMZ (10 μg/kg), and compound 1 (10 or 20 μg/kg). […]

[3] = test system: CT-2A-R; experiment: CCK8 cell proliferation assay, CT-2A-R; assay type: cell-based; conditions: Mus musculus, CCK8, 72 h
Procedure: as §1

[4] = test system: U87MG-R; experiment: CCK8 cell proliferation assay, U87MG-R; assay type: cell-based; conditions: Homo sapiens, CCK8, 72 h
Procedure: as §1

[5] = test system: Rad51 protein in PT#3R GBM cells; experiment: Immunoprecipitation and ubiquitination assay; assay type: cell-based, human; conditions: 24 h, IP with anti-Rad51 antibody
[6] = Adverse reactions in treated tumor-bearing mice; assay type: in vivo; conditions: mice of the orthotopic tumor models
Procedure: For orthotopic inoculation, CT-2A cells (1 × 10^5) or CT-2A-R (2 × 10^5) were suspended in 4 μL of DMEM and implanted into the brain of B6 mice. PT#3-R cells (5 × 10^5) were suspended in 4 μL of DMEM and implanted into the brain of SCID mice. After cell implantation, mice were monitored daily for survival, and their body weight was measured every 3 days starting from the seventh day. The oral vehicle consisted of 40% ethyl oleate, 12% lecithin, 20% propylene glycol, and 28% Triton X-100. Mice were administered 5 μL of vehicle per gram of body weight along with 50 mg/kg TMZ or a combination of TMZ and compound 1. Intraperitoneal injections were administered with DMSO (solvent control), TMZ (10 μg/kg), TMZ (10 μg/kg), and compound 1 (10 or 20 μg/kg). Upon the natural death of the mice, brains were extracted and entrusted to BioTools for sectioning and HE staining.
Supplementary information VIII. Body weight changes in mice administered with vehicle, TMZ, and Compound 1 in vivo.
S-VIII-1. Body weight changes in mice administered with DMSO, TMZ, and Compound 1 intraperitoneally following orthotopic CT-2A tumor implantation .
S-VIII-2. Body weight changes in mice administered with vehicle, TMZ, and Compound 1 intraperitoneally following orthotopic CT-2AR tumor implantation.
S-VIII-3. […]

[7] = Brain distribution study, UPLC of plasma and brain tissue extract; assay type: in vivo; conditions: mouse, ip, C57BL/6 mice, 360 mg/kg intraperitoneal
Procedure: The liquid chromatography was performed on an Acquity H class UPLC system (Waters Corp., Massachusetts, U.S.) equipped with an ACQUITY Premier PDA eλ detector (Waters Corp., Massachusetts, U.S.) with an autosampler temperature of 15 °C. Separation was performed at 25 °C on a Waters Acquity HSS T3 C18 column (2.1 mm × 100 mm, 1.8 μm particle size) with a gradient elution using A: water (containing 2 mM ammonium acetate and 0.1% formic acid) and B: acetonitrile as the mobile phase. The gradient program is as follows: 96% A (initial), 96% A (1 min), 65% A (7 min), 65% A (7.5 min), 96% A (8 min), and 96% A (12 min). The flow rate was set at 0.5 mL/min, and the injection volume was 3 μL. The UV wavelength was adjusted to 254 nm for compound 1 detection.
Following anesthesia of mice with isoflurane, blood samples were collected via a cardiac puncture. The blood was centrifuged at 2000g for 20 min at 4 °C to obtain plasma. Plasma samples were then mixed with an equal volume of 1 M zinc sulfate heptahydrate solution (cat. no. 221376, Sigma-Aldrich) and allowed to stand for 30 min. Subsequently, the mixture was centrifuged at 12,000g for 30 min at 4 °C, and the supernatant was collected for analysis. Brain tissues were homogenized using a Tenbroeck tissue grinder at a ratio of 5 μL of DMSO per mg of tissue. The homogenates were then centrifuged at 12,000g for 30 min at 4 °C, and the supernatant was collected for analysis.
Compound 1 was prepared in DMSO at a concentration of 180 mg/mL, and […] at 30 mg/mL. C57BL/6 mice were intraperitoneally injected with compound 1 at 360 mg/kg, TMZ at […], or DMSO at 2 μL/g as the control group. Mice were sacrificed by intraperitoneal injection after 30 min, and plasma as well as brain tissue extracts were collected following the aforementioned procedures.

[8] = test system: GBM, TMZ-resistant GBM, and patient-derived TMZ-resistant GBM cells; experiment: CCK8 assay, GBM cell panel (range given); assay type: cell-based; conditions: read-out: IC50 values, range over GBM cells
Procedure: as §1

SMILES: O=C(/C=C/c1ccc(CNC[C@H]2CN(c3ccc(N4CCOCC4)c(F)c3)C(=O)O2)cc1)NO [compound 1, (S,E)-3-(4-((((3-(3-Fluoro-4-morpholinophenyl)-2-oxooxazolidin-5-yl)methyl)ami-no)methyl)phenyl)-N-hydroxyacrylamide]
- IC50 [1]: 11.1 ± 0.57 µM
- growth of orthotopic tumors (IVIS) [2]: effectively inhibited the growth of orthotopic tumors
- IC50 [3]: 8.27 ± 1.39 µM
- IC50 [4]: 16.6 ± 0.45 µM
- Rad51 ubiquitination [5]: significant increase in Rad51 ubiquitination
- adverse reactions during the treatment period [6]: without adverse reactions observed
- concentration at 30 min ([7]; brain, read-out: Brain conc.): 831 ng/mL
- Kp at 0.5 h ([7]; brain/plasma, 30 min, read-out: brain/plasma (B/P) ratio): 1.27
- concentration at 30 min ([7]; plasma, read-out: Plasma conc.): 656 ng/mL
- IC50 [8]: 10.3 to 30.6 µM
